System: 323965-272-R-J2-PDC complex spheroid viability
Test: Anticancer human tumor 323965-272-R-J2-PDC patient-derived pancreatic carcinoma cell line growth inhibition [CLK]
Settings: for IC50: curve of first compound; for viability, T/C: stronger effect = lower value
Summary of the method: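 Multi-cell-type spheroids combined patient-derived tumor cells with HUVEC endothelial cells and human mesenchymal stem cells. Paired agents were dosed in half-log steps down from about clinical Cmax, or from 10 microM where Cmax was unknown.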

[1] = second compound 0.0316 µM, first compound 0.0316 µM
[2] = second compound 0.0316 µM, first compound 0.1 µM
[3] = second compound 0.0316 µM, first compound 0.316 µM
[4] = second compound 0.0316 µM, first compound 1 µM
[5] = second compound 0.0316 µM, first compound 3.16 µM
[6] = second compound 0.0316 µM, first compound 10 µM
[7] = second compound 0.1 µM, first compound 0.0316 µM
[8] = second compound 0.1 µM, first compound 0.1 µM
[9] = second compound 0.1 µM, first compound 0.316 µM
[10] = second compound 0.1 µM, first compound 1 µM
[11] = second compound 0.1 µM, first compound 3.16 µM
[12] = second compound 0.1 µM, first compound 10 µM
[13] = second compound 0.316 µM, first compound 0.0316 µM
[14] = second compound 0.316 µM, first compound 0.1 µM
[15] = second compound 0.316 µM, first compound 0.316 µM
[16] = second compound 0.316 µM, first compound 1 µM
[17] = second compound 0.316 µM, first compound 3.16 µM
[18] = second compound 0.316 µM, first compound 10 µM
[19] = second compound 1 µM, first compound 0.0316 µM
[20] = second compound 1 µM, first compound 0.1 µM
[21] = second compound 1 µM, first compound 0.316 µM
[22] = second compound 1 µM, first compound 1 µM
[23] = second compound 1 µM, first compound 3.16 µM
[24] = second compound 1 µM, first compound 10 µM
[25] = second compound 3.16 µM, first compound 0.0316 µM
[26] = second compound 3.16 µM, first compound 0.1 µM
[27] = second compound 3.16 µM, first compound 0.316 µM
[28] = second compound 3.16 µM, first compound 1 µM
[29] = second compound 3.16 µM, first compound 3.16 µM
[30] = second compound 3.16 µM, first compound 10 µM
[31] = second compound 10 µM, first compound 0.0316 µM
[32] = second compound 10 µM, first compound 0.1 µM
[33] = second compound 10 µM, first compound 0.316 µM
[34] = second compound 10 µM, first compound 1 µM
[35] = second compound 10 µM, first compound 3.16 µM
[36] = second compound 10 µM, first compound 10 µM
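Further: spheroids exposed to agents for seven days before readout.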
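Wherever viability, T/C is given: percent of DMSO vehicle control wells so 100% = untreated growth.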

Q: Which results are given for `COc1ccc([C@@H](O)c2cc(-c3ncnc4cc(N5CCOCC5)ccc34)c(F)cc2Cl)nn1` + CN1CCN(c2cc(C(=O)Nc3cc4cc(-c5cnn(C)c5)ccc4cn3)ccn2)CC1?
A: IC50 (second compound 0.0316 µM): 7780 nM; IC50 (second compound 0.1 µM): 3340 nM; IC50 (second compound 0.316 µM): < 31.6 nM; IC50 (second compound 1 µM): < 31.6 nM; IC50 (second compound 3.16 µM): < 31.6 nM; IC50 (second compound 10 µM): < 31.6 nM; viability, T/C [1]: 94.2%; viability, T/C [2]: 100%; viability, T/C [3]: 84%; viability, T/C [4]: 89.7%; viability, T/C [5]: 68.8%; viability, T/C [6]: 44.5%; viability, T/C [7]: 70.5%; viability, T/C [8]: 80.3%; viability, T/C [9]: 62.9%; viability, T/C [10]: 61.8%; viability, T/C [11]: 51%; viability, T/C [12]: 37.8%; viability, T/C [13]: 21.9%; viability, T/C [14]: 23.9%; viability, T/C [15]: 22.8%; viability, T/C [16]: 21.1%; viability, T/C [17]: 19.1%; viability, T/C [18]: 21.1%; viability, T/C [19]: 4.14%; viability, T/C [20]: 3.13%; viability, T/C [21]: 4.35%; viability, T/C [22]: 2.76%; viability, T/C [23]: 3.07%; viability, T/C [24]: 4.48%; viability, T/C [25]: 4.01%; viability, T/C [26]: 4.31%; viability, T/C [27]: 6.05%; viability, T/C [28]: 4.02%; viability, T/C [29]: 5.21%; viability, T/C [30]: 4.73%; viability, T/C [31]: 4.33%; viability, T/C [32]: 5.55%; viability, T/C [33]: 4.42%; viability, T/C [34]: 5.56%; viability, T/C [35]: 5.95%; viability, T/C [36]: 6.95%

Q: How did the IC50 (second compound 0.0316 µM) turn out when `COc1cccc2c1C(=O)c1c(O)c3c(c(O)c1C2=O)CC(O)(C(=O)CO)CC3OC1CC(N)C(O)C(C)O1` (centres undefined) + CN1CCN(c2cc(C(=O)Nc3cc4cc(-c5cnn(C)c5)ccc4cn3)ccn2)CC1 was run?
A: The IC50 was 117 nM.

Q: What about the IC50 (second compound 0.1 µM) of the same compound?
A: The IC50 was under 31.6 nM.

Q: What about the IC50 (second compound 0.316 µM) of the same compound?
A: Its IC50 is under 31.6 nM.

Q: What about the IC50 (second compound 1 µM) of the same compound?
A: Its IC50 is under 31.6 nM.

Q: And the IC50 (second compound 3.16 µM)?
A: Its IC50 is under 31.6 nM.

Q: And the IC50 (second compound 10 µM)?
A: The IC50 was under 31.6 nM.

Q: What about the viability, T/C [1] of the same compound?
A: The viability, T/C was 67.8%.

Q: What about the viability, T/C [2] of the same compound?
A: Its viability, T/C is 40.7%.

Q: What about the viability, T/C [3] of the same compound?
A: Its viability, T/C is 39.4%.

Q: And the viability, T/C [4]?
A: Its viability, T/C is 34.8%.

Q: And the viability, T/C [5]?
A: The viability, T/C was 25.3%.

Q: What about the viability, T/C [6] of the same compound?
A: Its viability, T/C is 1.54%.

Q: What about the viability, T/C [7] of the same compound?
A: Its viability, T/C is 54.4%.

Q: And the viability, T/C [8]?
A: The viability, T/C was 31.6%.

Q: And the viability, T/C [9]?
A: The viability, T/C was 29.3%.

Q: What about the viability, T/C [10] of the same compound?
A: The viability, T/C was 28.2%.

Q: What about the viability, T/C [11] of the same compound?
A: The viability, T/C was 19.1%.

Q: And the viability, T/C [12]?
A: The viability, T/C was 1.41%.

Q: And the viability, T/C [13]?
A: The viability, T/C was 20.3%.

Q: What about the viability, T/C [14] of the same compound?
A: Its viability, T/C is 19.8%.

Q: And the viability, T/C [15]?
A: The viability, T/C was 16.1%.

Q: What about the viability, T/C [16] of the same compound?
A: The viability, T/C was 13.1%.

Q: What about the viability, T/C [17] of the same compound?
A: Its viability, T/C is 5.8%.

Q: And the viability, T/C [18]?
A: Its viability, T/C is 0.68%.

Q: And the viability, T/C [19]?
A: The viability, T/C was 2.27%.

Q: What about the viability, T/C [20] of the same compound?
A: Its viability, T/C is 3.05%.

Q: And the viability, T/C [21]?
A: Its viability, T/C is 2.16%.

Q: What about the viability, T/C [22] of the same compound?
A: The viability, T/C was 1.22%.

Q: What about the viability, T/C [23] of the same compound?
A: Its viability, T/C is 1.2%.

Q: And the viability, T/C [24]?
A: The viability, T/C was 0.38%.

Q: And the viability, T/C [25]?
A: Its viability, T/C is 4.1%.

Q: And the viability, T/C [26]?
A: Its viability, T/C is 4.05%.

Q: What about the viability, T/C [27] of the same compound?
A: Its viability, T/C is 2.98%.

Q: What about the viability, T/C [28] of the same compound?
A: Its viability, T/C is 1.5%.

Q: What about the viability, T/C [29] of the same compound?
A: Its viability, T/C is 1.35%.

Q: What about the viability, T/C [30] of the same compound?
A: The viability, T/C was 0.43%.

Q: What about the viability, T/C [31] of the same compound?
A: Its viability, T/C is 4.15%.

Q: And the viability, T/C [32]?
A: Its viability, T/C is 4.78%.

Q: And the viability, T/C [33]?
A: The viability, T/C was 4.17%.

Q: What about the viability, T/C [34] of the same compound?
A: Its viability, T/C is 1.38%.

Q: What about the viability, T/C [35] of the same compound?
A: The viability, T/C was 1.47%.

Q: What about the viability, T/C [36] of the same compound?
A: The viability, T/C was 0.19%.

— PubChem BioAssay AID2060619 (Molecular Pharmacology Branch, DTP, NCI, 2025)
